Experimental data: PMC10247784, “Physiological activation of human and mouse bitter taste receptors by bile acids” (Communications Biology, 2023)
“And” between values parts separate entries of the source, which are not always exact repeats. Equal values may be shown once.

Target: T1, human TAS2R14 (Homo sapiens, UniProt Q9NYV8)
T1 construct: expressed in transfected cells; host or cells: HEK293T-Gα16gust44
T1 sequence (Q9NYV8 1-317): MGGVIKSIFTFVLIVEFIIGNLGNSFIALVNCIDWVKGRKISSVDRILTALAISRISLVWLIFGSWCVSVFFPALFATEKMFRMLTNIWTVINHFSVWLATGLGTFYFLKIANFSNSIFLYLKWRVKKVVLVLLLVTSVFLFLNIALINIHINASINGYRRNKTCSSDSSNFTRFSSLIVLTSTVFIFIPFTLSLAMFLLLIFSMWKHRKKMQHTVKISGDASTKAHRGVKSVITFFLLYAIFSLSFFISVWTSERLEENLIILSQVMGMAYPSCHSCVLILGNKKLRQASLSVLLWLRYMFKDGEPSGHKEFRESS
Test: Calcium imaging assay (FLIPR), HEK293T-Gα16gust44 cells transfected with human TAS2R14
Format: cell-based
Details: for RLU: TAS2R14 trace
Experimental: This set of bile acids was chosen because of their commercial availability in high purities, their diversity within the class of bile acids and their previous detection and quantitation in human blood. Stock solutions were prepared in DMSO.
As basal growth medium for the HEK293T-Gα16gust44 cell line[17],[59] served Dulbecco’s modified eagle medium (DMEM) (Thermo Fisher Scientific, Darmstadt, Germany) supplemented with 10 % fetal bovine serum (Sigma-Aldrich, Steinheim, Germany), 2 mM L-glutamine (Sigma-Aldrich, Steinheim, Germany), 100 units/ml penicillin (Sigma Aldrich, Steinheim, Germany) and 100 µg/ml streptomycin (Sigma Aldrich, Steinheim, Germany). Growth conditions were 37 °C, 5 % CO2 and saturated air-humidity[60].
HEK293T-Gα16gust44 cells were seeded on poly-D-lysine (10 µg/ml) coated 96-well plates to reach a confluence of 40-60 % the next day. For transient transfection 150 ng of plasmid DNA containing the receptor of interest and 0.3 µl lipofectamine 2000 (Thermo Fisher Scientific, Darmstadt, Germany) per well were used and transfection took place according to the manual of lipofectamine 2000. […] The empty vector DNA (mock) was transfected as negative control[14],[41].
Cells were loaded using the calcium-sensitive fluorescent dye Fluo-4-AM (Abcam, Cambridge, Great Britain) in the presence of 2.5 mM probenecid (Sigma-Aldrich, Steinheim, Germany) the day after transfection[13],[41]. 1 h after loading, cells were washed with C1 buffer using a BioTek Cell Washer, incubated in the dark for half an hour and washed again. For automated agonist application and measurement of fluorescence changes, a FLIPR^TETRA device (Molecular Devices, San José, United States) was used. Viability of cells was tested by application of 100 nM Somatostatin 14 (Bachem, Bubendorf, Switzerland)[42].
Measured data were negative control corrected by subtracting the signal of the mock-transfected cells and exported to Microsoft Excel using the FLIPR software ScreenWorks 4.2. In Microsoft Excel software, standardization of maximum fluorescence intensities to the basal fluorescence and normalization to the buffer-only control was done to calculate the relative fluorescence changes (ΔF/F).
Initial screening experiments performed in duplicate wells were confirmed by at least one replication and representative traces were selected for display. All dose-response relationships were determined by three independent experiments (biological replicates) performed in duplicates (technical replicates). Threshold concentrations, defined as lowest substance concentrations leading to statistically significant elevated fluorescence changes in receptor-transfected cells compared with empty vector-transfected cells, were determined using SigmaPlot with Student’s t-test to evaluate statistical significance (p < 0.01).

Question: Which results are given for `C[C@H](CCC(=O)NCC(=O)O)[C@H]1CC[C@H]2[C@@H]3[C@H](O)C[C@@H]4C[C@H](O)CC[C@]4(C)[C@H]3C[C@H](O)[C@]12C` [Glycocholic Acid, glycocholic acid]?
Answer: Efficacy = maximal amplitude (ΔF/F) (TAS2R14, bile acids, mean): 0.2451; Efficacy (maximal amplitude ΔF/F), individual data points (TAS2R14, bile acids, single replicates, listed as GCA): 0.2248 and 0.2913 and 0.2191; Δ F/F (TAS2R14, conc. 0,01 mM): 0.002092; Δ F/F (TAS2R14, conc. 0,1 mM): 0.02639; Δ F/F (TAS2R14, conc. 0,03 mM): 0.01392; Δ F/F (TAS2R14, conc. 0,3 mM): 0.06546; Δ F/F (TAS2R14, conc. 0,001 mM): 0.007446; Δ F/F (TAS2R14, conc. 1 mM): 0.2451; Δ F/F (TAS2R14, conc. 0,003 mM): 0.001619; RLU (Time (s) 0): 0 RLU; RLU (Time (s) 2 (Taurocholic Acid 2.016)): -6.072 RLU; RLU (Time (s) 4 (Taurocholic Acid 4.016)): -9.1 RLU; RLU (Time (s) 6 (Taurocholic Acid 6.016)): -27.0469 RLU; RLU (Time (s) 8 (Taurocholic Acid 8.016)): -30.0405 RLU; RLU (Time (s) 12 (Taurocholic Acid 12.016)): -37.9898 RLU; RLU (Time (s) 14 (Taurocholic Acid 14.016)): -36.9901 RLU; RLU (Time (s) 16 (Taurocholic Acid 16.016)): -51.9041 RLU; RLU (Time (s) 18 (Taurocholic Acid 18.016)): -34 RLU; RLU (Time (s) 18.797 (Chenodeoxycholic Acid 18.765)): -73.9735 RLU; RLU (Time (s) 20.797 (Chenodeoxycholic Acid 20.781)): -100.333 RLU; RLU (Time (s) 22.797 (Chenodeoxycholic Acid 22.781)): -58.0996 RLU; RLU (Time (s) 24.797 (Chenodeoxycholic Acid 24.781)): -11.7946 RLU; RLU (Time (s) 26.797 (Chenodeoxycholic Acid 26.781)): -4.829 RLU; RLU (Time (s) 28.797 (Chenodeoxycholic Acid 28.781)): -12.95 RLU; RLU (Time (s) 30.797 (Chenodeoxycholic Acid 30.781)): 25.2324 RLU; RLU (Time (s) 32.797 (Chenodeoxycholic Acid 32.781)): 58.2752 RLU; RLU (Time (s) 34.797 (Chenodeoxycholic Acid 34.781)): 56.7501 RLU; RLU (Time (s) 36.797 (Chenodeoxycholic Acid 36.781)): 94.7938 RLU; RLU (Time (s) 38.797 (Chenodeoxycholic Acid 38.781)): 109.443 RLU; RLU (Time (s) 40.797 (Chenodeoxycholic Acid 40.781)): 134.729 RLU; RLU (Time (s) 42.797 (Chenodeoxycholic Acid 42.781)): 165.138 RLU; RLU (Time (s) 44.797 (Chenodeoxycholic Acid 44.781)): 223.768 RLU; RLU (Time (s) 46.797 (Chenodeoxycholic Acid 46.781)): 253.169 RLU; RLU (Time (s) 48.797 (Chenodeoxycholic Acid 48.781)): 284.606 RLU; RLU (Time (s) 50.797 (Chenodeoxycholic Acid 50.781)): 322.537 RLU; RLU (Time (s) 52.797 (Chenodeoxycholic Acid 52.781)): 365.455 RLU; RLU (Time (s) 54.797 (Chenodeoxycholic Acid 54.781)): 404.11 RLU; RLU (Time (s) 56.797 (Chenodeoxycholic Acid 56.781)): 424.679 RLU; RLU (Time (s) 58.797 (Chenodeoxycholic Acid 58.781)): 448.405 RLU; RLU (Time (s) 60.797 (Chenodeoxycholic Acid 60.781)): 513.015 RLU; RLU (Time (s) 62.797 (Chenodeoxycholic Acid 62.781)): 520.328 RLU; RLU (Time (s) 64.797 (Chenodeoxycholic Acid 64.781)): 518.587 RLU; RLU (Time (s) 66.797 (Chenodeoxycholic Acid 66.781)): 566.626 RLU; RLU (Time (s) 68.797 (Chenodeoxycholic Acid 68.781)): 571.358 RLU; RLU (Time (s) 70.797 (Chenodeoxycholic Acid 70.781)): 583.853 RLU; RLU (Time (s) 72.797 (Chenodeoxycholic Acid 72.781)): 622.789 RLU; RLU (Time (s) 74.797 (Chenodeoxycholic Acid 74.781)): 701.49 RLU; RLU (Time (s) 76.797 (Chenodeoxycholic Acid 76.781)): 688.581 RLU; RLU (Time (s) 78.797 (Chenodeoxycholic Acid 78.781)): 706.104 RLU; RLU (Time (s) 80.797 (Chenodeoxycholic Acid 80.781)): 737.493 RLU; RLU (Time (s) 82.797 (Chenodeoxycholic Acid 82.781)): 736.745 RLU; RLU (Time (s) 84.797 (Chenodeoxycholic Acid 84.781)): 766.635 RLU; RLU (Time (s) 86.797 (Chenodeoxycholic Acid 86.781)): 784.026 RLU
